Assay results reported in US11376264B2, “Use of bromodomain-containing protein 9 antagonists in combination with vitamin D receptor agonists in diabetes treatment” (Salk Institute for Biological Studies, priority 2017, dated 2022).

How the values were obtained:
Nfkbia (IκBα) = assay: Nfkbia expression in IL1β-stressed INS1 cells (qPCR); assay type: cell-based, rat
Method: Samples were run in triplicate and expression was normalized to the levels of the housekeeping controls Rplp0 (36b4) for human and mouse. Samples were analyzed by qPCR, using SYBR Green dye (Bio-rad). Statistical comparisons were made using Student's t test. Error bars are mean±SEM. Primers used are shown below: INS1 cells were cultured at 37° C. in 5% C02 in air in RPMI-1640 (Sigma Aldrich) supplemented with 10% (v/v) fetal bovine serum, 1% (v/v) Antibiotic-Antimycotic (Gibco) 10 mM HEPES, 2 mM glutamax, 1 mM sodium pyruvate, and 50 μM β-mercaptoethanol (RPMI for INS1 medium). INS1 cells were transfected with Lipofectamine RNAiMAX (Invitrogen) for 24 hr, […] (VDR: L-097753-02-0005, PCAF: L-085879-02-0005, BAF180: L-088113-02-0005, non-targeting pool: D-001810-10-05).

h-IAPP mouse islets = assay: Islets from aged h-IAPP transgenic mice treated ex vivo (qPCR); assay type: cell-based; conditions: 72 hr ex vivo, 15 month old mice
Method: (§1) Samples were run in triplicate and expression was normalized to the levels of the housekeeping controls Rplp0 (36b4) for human and mouse. Samples were analyzed by qPCR, using SYBR Green dye (Bio-rad). Statistical comparisons were made using Student's t test. Error bars are mean±SEM. Primers used are shown below: Mouse pancreatic islets were isolated as previously described (Yoshihara et al., 2010, Nat. Commun 1:127) with slight modification. Briefly, 0.5 mg/ml collagenase P (Roche REF 1213873001, diluted in HBSS buffer, GIBCO, 14170-112) was injected through the common bile duct, and the perfused pancreas dissected and incubated at 37° C. for 21 min. Digested exocrine cells and intact islets were separated via centrifugation (900×g for 15 min) over Histopaque-1077 (Sigma, H8889), and intact islets were manually selected. Human islets were provided by the Integrated Islets Distribution Program (see details below).

INS1 cells = assay: Thapsigargin or tunicamycin-induced ER stress in INS1 cells (p-PERK Western); assay type: cell-based, rat; conditions: Cal pre-treated 1 hour, stressor overnight
human islets = assay: Human islets under cytokine stress, transmission electron microscopy; assay type: cell-based; conditions: 24 hours
Method: as §1, with “Mouse” for “Samples were run in triplicate and expression was normalized to the levels of the housekeeping controls Rplp0 (36b4) for human and mouse. Samples were analyzed by qPCR, using SYBR Green dye (Bio-rad). Statistical comparisons were made using Student's t test. Error bars are mean±SEM. Primers used are shown below: Mouse”
Islets in suspension were pelleted in 2% low melting point agarose and subsequently fixed in 2.5% glutaraldehyde with 2% paraformaldehyde in 0.15M cacodylate buffer containing 2 mM calcium chloride, pH 7.4, for one hour at 4° C. The pellet was trimmed down to contain the minimal amount of agarose possible, washed in buffer, and secondarily fixed in 1% osmium tetroxide/0.3% potassium ferrocyanide in buffer. Subsequently, the pellet was washed in water and en bloc stained with 2% uranyl acetate followed by a graded dehydration in ethanol (35%, 50%, 70%, 90%, 100%, 100%). […]

[1] = test system: BAF/PBAF complex binding at Nfkbia, Nfkbiz, Camk4; assay: ChIP-qPCR of ARID1B and BAF180 at VDR target loci; assay type: cell-based, rat
Description: The experimental procedure for ChIP was as previously described (Barish et al., 2010, Genes Dev 24:2760-5). Briefly, after fixation, nuclei from were isolated, lysed, and sheared with a Diagenode Bioruptor to yield DNA fragment sizes of 200-1,000 bp followed by immunoprecipitation.

| SMILES | Nfkbia expression (Nfkbia (IκBα); 30 minutes IL1β exposure) | Nfkbia expression (Nfkbia (IκBα); IL1β stress, after 24 hrs) | inflammatory and stress markers (h-IAPP mouse islets) | ER stress (p-PERK) (INS1 cells) | cytokine-induced morphological degeneration (insulin granules, ER) (human islets) | ARID1B (BAF complex) binding at target gene loci [1] | BAF180 (PBAF complex) binding at target gene loci [1] |
| --- | --- | --- | --- | --- | --- | --- | --- |
| C=C1/C(=C\C=C2/CCC[C@]3(C)[C@@H]([C@H](C)/C=C/[C@@H](O)C4CC4)CC[C@@H]23)C[C@@H](O)C[C@@H]1O [Cal, calcipotriol] | increased | not sufficient to induce a significant increase | reduced | attenuated | partially rescues the morphological degeneration |  |  |
| CCn1cc(-c2cccc(C(F)(F)F)c2)c2sc(C(=N)NC3CCS(=O)(=O)CC3)cc2c1=O [iBRD9] |  |  |  |  |  | reduces BAF complex binding | increases PBAF complex binding |
